Experimental findings from US9382254B2, “Compounds and pharmaceutical compositions thereof for the treatment of cystic fibrosis” (Galapagos NV, priority 2013, dated 2016) are described below.

pEC50: −log10 of the molar value.

Common to all, as to type: cell-based
Assay [1] has as its target T1, CFTR ΔF508 mutant (Homo sapiens, UniProt P13569, DEL508-508).
T1 construct: expressed in transfected cells; host or cells: CFBE41o- (adenoviral transduction)
The experiment in a line: YFP-halide influx assay for the CFTR-ΔF508 mutation, gluconate buffer. The following applies: CFBE41o- cells, forskolin 10.67 μM. Put shortly:
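CFBE41o- cells adenovirally transduced with CFTR ΔF508 and YFP H148Q/I152L, then held 24 h at 27 °C or treated with CFTR modulator 24 h at 37 °C. I− quenching recorded for 7 s after injection; activity as 1-F/F0, EC50 from concentration plot.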

For assay [2], the target named is T1, CFTR ΔF508 mutant. The assay is described as follows: YFP-halide influx assay for the CFTR-ΔF508 mutation, PBS buffer (96 well). The following applies: CFBE41o- cells, forskolin 10.67 μM. Put shortly: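 CFBE41o- cells were adenovirally transduced with CFTR ΔF508 and YFP H148Q/I152L, then incubated 24 h at 27 °C or with a CFTR modulator at 37 °C. I⁻-induced fluorescence quenching was recorded over 7 s after injection; response expressed as 1−F/F0, with EC50 from concentration plots.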

Assay [3] deals with T1, CFTR ΔF508 mutant. The experiment in a line: YFP-halide influx assay for the CFTR-ΔF508 mutation (384 well, FDSS/μCell). To be noted: CFBE41o- cells, CFTR-ΔF508, 1×D-PBS, fluorescence after 36 seconds. Put shortly: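 Potentiator read-out as 1−F/F0, F taken 36 s after iodide addition, EC50 fitted against compound concentration. Cells: CFBE41o- expressing ΔF508 CFTR plus halide-sensitive YFP via adenovirus, rescued by 27 °C for 24 h or 24 h modulator at 37 °C.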

In another assay the target is T2, CFTR G551D mutant (Homo sapiens, UniProt P13569, G551D).
T2 construct: expressed in transfected cells; host or cells: HEK293 (reverse transfection with plasmid)
The assay is described as follows: YFP-halide influx assay for the CFTR-G551D mutation. The following applies: HEK293 cells, forskolin 10.67 μM. Put shortly: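 HEK293 cells reverse-transfected with CFTR G551D and YFP H148Q/I152L/F47L halide sensor, expressed 24 h at 37 °C. Iodide-induced fluorescence quench recorded 7 s after I− injection; response = 1−F/F0, with EC50 from plot against compound concentration.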

T1 sequence (P13569 with tags, fused parts or gaps DEL508-508): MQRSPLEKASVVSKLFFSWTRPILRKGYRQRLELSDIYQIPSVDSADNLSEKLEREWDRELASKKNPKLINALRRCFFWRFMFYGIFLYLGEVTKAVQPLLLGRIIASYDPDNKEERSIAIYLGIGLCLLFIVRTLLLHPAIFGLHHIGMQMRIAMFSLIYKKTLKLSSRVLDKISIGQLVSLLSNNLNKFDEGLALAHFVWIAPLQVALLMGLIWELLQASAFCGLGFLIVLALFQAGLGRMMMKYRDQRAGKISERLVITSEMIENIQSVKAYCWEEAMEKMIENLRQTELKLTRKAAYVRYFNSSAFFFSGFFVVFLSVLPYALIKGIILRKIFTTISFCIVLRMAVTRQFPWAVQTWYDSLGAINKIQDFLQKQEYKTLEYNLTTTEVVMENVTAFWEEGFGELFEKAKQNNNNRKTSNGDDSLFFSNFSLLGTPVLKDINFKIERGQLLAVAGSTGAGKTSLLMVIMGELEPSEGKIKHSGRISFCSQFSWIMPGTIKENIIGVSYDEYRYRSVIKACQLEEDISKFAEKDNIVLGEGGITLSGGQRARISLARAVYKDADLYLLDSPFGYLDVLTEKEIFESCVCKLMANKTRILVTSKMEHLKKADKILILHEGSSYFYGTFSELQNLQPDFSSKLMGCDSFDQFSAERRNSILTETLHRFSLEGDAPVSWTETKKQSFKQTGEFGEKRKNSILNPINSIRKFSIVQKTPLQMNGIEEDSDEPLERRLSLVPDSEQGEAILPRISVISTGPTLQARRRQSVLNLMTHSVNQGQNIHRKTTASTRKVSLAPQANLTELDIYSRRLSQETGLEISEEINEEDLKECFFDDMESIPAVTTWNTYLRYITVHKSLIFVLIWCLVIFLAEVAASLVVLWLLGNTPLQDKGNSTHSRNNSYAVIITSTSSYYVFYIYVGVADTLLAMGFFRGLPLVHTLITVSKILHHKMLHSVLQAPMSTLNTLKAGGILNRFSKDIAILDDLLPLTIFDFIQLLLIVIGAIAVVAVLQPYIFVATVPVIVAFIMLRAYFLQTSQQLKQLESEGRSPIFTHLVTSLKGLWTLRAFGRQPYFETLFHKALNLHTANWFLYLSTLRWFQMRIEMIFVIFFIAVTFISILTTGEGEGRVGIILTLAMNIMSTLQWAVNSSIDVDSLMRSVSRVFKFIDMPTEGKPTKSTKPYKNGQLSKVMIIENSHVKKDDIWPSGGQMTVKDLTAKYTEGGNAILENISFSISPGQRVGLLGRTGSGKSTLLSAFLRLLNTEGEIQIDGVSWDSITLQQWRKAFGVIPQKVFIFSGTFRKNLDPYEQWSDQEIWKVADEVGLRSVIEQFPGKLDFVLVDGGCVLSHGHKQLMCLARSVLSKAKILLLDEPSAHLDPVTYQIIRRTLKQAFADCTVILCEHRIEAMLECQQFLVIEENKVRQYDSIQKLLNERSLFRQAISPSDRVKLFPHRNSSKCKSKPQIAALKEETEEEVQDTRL
T2 sequence (P13569 whole entry G551D): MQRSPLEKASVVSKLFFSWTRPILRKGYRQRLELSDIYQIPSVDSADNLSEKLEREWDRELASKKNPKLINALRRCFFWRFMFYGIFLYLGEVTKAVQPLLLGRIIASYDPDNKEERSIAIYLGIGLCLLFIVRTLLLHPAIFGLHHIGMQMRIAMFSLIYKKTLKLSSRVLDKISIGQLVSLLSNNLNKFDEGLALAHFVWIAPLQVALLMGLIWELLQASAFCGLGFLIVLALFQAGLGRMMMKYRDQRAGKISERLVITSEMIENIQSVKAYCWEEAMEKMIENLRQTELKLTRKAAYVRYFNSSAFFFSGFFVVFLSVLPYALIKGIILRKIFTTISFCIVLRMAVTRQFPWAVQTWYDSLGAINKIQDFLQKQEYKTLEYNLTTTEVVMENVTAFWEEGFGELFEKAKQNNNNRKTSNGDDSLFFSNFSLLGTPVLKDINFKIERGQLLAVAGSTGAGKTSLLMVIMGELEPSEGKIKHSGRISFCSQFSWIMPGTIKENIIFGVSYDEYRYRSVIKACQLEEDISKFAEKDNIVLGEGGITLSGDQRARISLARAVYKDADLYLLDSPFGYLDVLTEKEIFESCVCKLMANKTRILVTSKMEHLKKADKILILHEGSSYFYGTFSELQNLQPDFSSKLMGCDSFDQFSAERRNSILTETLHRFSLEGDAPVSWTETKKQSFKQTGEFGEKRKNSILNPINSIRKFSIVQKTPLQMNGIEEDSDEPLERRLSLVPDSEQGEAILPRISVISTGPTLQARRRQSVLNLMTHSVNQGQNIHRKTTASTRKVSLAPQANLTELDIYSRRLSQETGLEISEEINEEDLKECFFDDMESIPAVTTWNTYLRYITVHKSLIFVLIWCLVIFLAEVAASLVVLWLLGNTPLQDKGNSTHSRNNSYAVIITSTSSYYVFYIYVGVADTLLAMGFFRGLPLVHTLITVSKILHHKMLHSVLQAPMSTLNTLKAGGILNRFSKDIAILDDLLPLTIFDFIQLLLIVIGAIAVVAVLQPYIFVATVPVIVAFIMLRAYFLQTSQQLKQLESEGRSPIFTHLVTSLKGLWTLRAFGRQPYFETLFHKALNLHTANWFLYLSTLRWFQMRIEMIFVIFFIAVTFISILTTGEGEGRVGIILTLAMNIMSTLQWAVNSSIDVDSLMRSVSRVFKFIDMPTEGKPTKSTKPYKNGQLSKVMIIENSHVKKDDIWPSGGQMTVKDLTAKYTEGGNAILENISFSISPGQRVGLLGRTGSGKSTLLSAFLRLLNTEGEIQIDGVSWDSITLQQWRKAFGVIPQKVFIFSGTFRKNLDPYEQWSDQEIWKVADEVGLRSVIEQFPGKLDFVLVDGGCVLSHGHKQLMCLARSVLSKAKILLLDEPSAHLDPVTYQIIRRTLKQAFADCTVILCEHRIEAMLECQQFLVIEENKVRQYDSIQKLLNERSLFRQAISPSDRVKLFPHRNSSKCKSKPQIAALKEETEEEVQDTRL

For `CN(Cc1ccc(C(F)(F)F)cc1)S(=O)(=O)c1cc(C(N)=O)c(NC(=O)c2cc[nH]n2)s1` [Compound 175, N-(3-carbamoyl-5-(N-methyl-N-(4-(trifluoromethyl)benzyl)sulfamoyl)thiophen-2-yl)-1H-pyrazole-3-carboxamide], the pEC50 – broadly, −log10 of the EC50, conventionally taken in molar units – at CFTR ΔF508 mutant [1] was 6.98; at CFTR ΔF508 mutant [2], 7.21; at CFTR ΔF508 mutant [3], 7.01; on CFTR G551D mutant, 6.28.

`CC1(C)CN(S(=O)(=O)c2cc(C(N)=O)c(NC(=O)c3ccccc3F)s2)C1` [Compound 183, 5-(3,3-dimethylazetidin-1-ylsulfonyl)-2-(2-fluorobenzamido)thiophene-3-carboxamide]: the pEC50 was 6.82 on CFTR ΔF508 mutant [1], 7.59 at CFTR ΔF508 mutant [2], 7.90 at CFTR ΔF508 mutant [3] and 6.28 on CFTR G551D mutant.

As for `COc1ccc(CN(C)S(=O)(=O)c2cc(C(N)=O)c(NC(=O)c3cc[nH]n3)s2)cc1F` [Compound 160, N-(3-carbamoyl-5-(N-(3-fluoro-4-methoxybenzyl)-N-methylsulfamoyl)thiophen-2-yl)-1H-pyrazole-3-carboxamide], the pEC50 on CFTR ΔF508 mutant [1] is 7.32; at CFTR ΔF508 mutant [2], 7.41; on CFTR ΔF508 mutant [3], 6.68; on CFTR G551D mutant, 6.57.

With `CN(Cc1ccncc1)S(=O)(=O)c1cc(C(N)=O)c(NC(=O)c2cc[nH]n2)s1` [Compound 207, N-(3-carbamoyl-5-(N-methyl-N-(pyridin-4-ylmethyl)sulfamoyl)thiophen-2-yl)-1H-pyrazole-3-carboxamide], the pEC50 on CFTR ΔF508 mutant [1] was 6.50; at CFTR ΔF508 mutant [2], 6.90; on CFTR ΔF508 mutant [3] it was 7.32; on CFTR G551D mutant it was 6.35.

Take `NC(=O)c1cc(S(=O)(=O)N2CCOCC2)sc1NC(=O)c1ccccc1C(F)(F)F` [Compound 78, 5-(morpholinosulfonyl)-2-(2-(trifluoromethyl)benzamido)thiophene-3-carboxamide]: the pEC50 on CFTR ΔF508 mutant [1] was 6.40; on CFTR ΔF508 mutant [2], 6.66; on CFTR ΔF508 mutant [3], 6.83; at CFTR G551D mutant it was 5.51.

`CN(C1CC1)S(=O)(=O)c1cc(C(N)=O)c(NC(=O)c2cc[nH]n2)s1` [Compound 209, N-(3-carbamoyl-5-(N-cyclopropyl-N-methylsulfamoyl)thiophen-2-yl)-1H-pyrazole-3-carboxamide]: the pEC50 at CFTR ΔF508 mutant [1] is 7.13; at CFTR ΔF508 mutant [2], 7.46; on CFTR ΔF508 mutant [3], 8.22; on CFTR G551D mutant, 6.50.

On to `CC(C)(O)C(=O)Nc1sc(S(=O)(=O)c2ccc(F)cc2)cc1C(N)=O` [Compound 221, 5-(4-fluorophenylsulfonyl)-2-(2-hydroxy-2-methylpropanamido) thiophene-3-carboxamide], for which the pEC50 at CFTR ΔF508 mutant [1] was 6.96; at CFTR ΔF508 mutant [2], 7.31; on CFTR ΔF508 mutant [3] it was 7.58; at CFTR G551D mutant, 5.94.

On to `COc1ccc(CN(C)S(=O)(=O)c2cc(C(N)=O)c(NC(=O)c3cc[nH]n3)s2)cc1` [Compound 171, N-(3-carbamoyl-5-(N-(4-methoxybenzyl)-N-methylsulfamoyl)thiophen-2-yl)-1H-pyrazole-3-carboxamide], for which the pEC50 is 6.98 at CFTR ΔF508 mutant [1], 7.43 at CFTR ΔF508 mutant [2], 7.09 at CFTR ΔF508 mutant [3] and 6.12 on CFTR G551D mutant.

In the case of `CC(C)c1ccccc1S(=O)(=O)c1cc(C(N)=O)c(NC(=O)c2ccccc2F)s1` [Compound 179, 2-(2-fluorobenzamido)-5-(2-isopropylphenylsulfonyl) thiophene-3-carboxamide], the pEC50 on CFTR ΔF508 mutant [1] is 7.65; at CFTR ΔF508 mutant [2], 7.51; on CFTR ΔF508 mutant [3], 7.07; on CFTR G551D mutant it was 6.48.

Turning to `NC(=O)c1cc(S(=O)(=O)c2ccc(F)cc2)sc1NC(=O)C1(O)CCC1` [Compound 226, 5-(4-fluorophenylsulfonyl)-2-(1-hydroxycyclobutanecarboxamido) thiophene-3-carboxamide], the negative-log EC50 (pEC50) at CFTR ΔF508 mutant [1] was 7.37; at CFTR ΔF508 mutant [2], 7.43; at CFTR ΔF508 mutant [3], 7.47; at CFTR G551D mutant, 6.27.

For `Cc1cc(F)ccc1S(=O)(=O)c1cc(C(N)=O)c(NC(=O)C2(O)CC2)s1` [Compound 222, 5-(4-fluoro-2-methylphenylsulfonyl)-2-(1-hydroxycyclopropanecarboxamido) thiophene-3-carboxamide], the pEC50 is 7.64 at CFTR ΔF508 mutant [1], 7.58 on CFTR ΔF508 mutant [2], 7.48 on CFTR ΔF508 mutant [3] and 6.23 on CFTR G551D mutant.

For the molecule `CC(C)(C)C(=O)Nc1sc(S(=O)(=O)c2cccc(F)c2)cc1C(N)=O` [Compound 122, 5-(3-fluorophenylsulfonyl)-2-pivalamidothiophene-3-carboxamide], the pEC50 on CFTR ΔF508 mutant [1] is 6.53; at CFTR ΔF508 mutant [2], 6.94; on CFTR ΔF508 mutant [3] it was 7.16; at CFTR G551D mutant, 5.25.

In the case of `CC1(C)CN(S(=O)(=O)c2cc(C(N)=O)c(NC(=O)c3cc[nH]n3)s2)C1` [Compound 206, N-(3-carbamoyl-5-(3,3-dimethylazetidin-1-ylsulfonyl)thiophen-2-yl)-1H-pyrazole-3-carboxamide], the negative-log EC50 (pEC50) on CFTR ΔF508 mutant [1] is 7.14; on CFTR ΔF508 mutant [2], 7.50; at CFTR ΔF508 mutant [3] it was 8.16; at CFTR G551D mutant, 6.87.

As to `CN(CCC(F)(F)F)S(=O)(=O)c1cc(C(N)=O)c(NC(=O)c2cc[nH]n2)s1` [Compound 194, N-(3-carbamoyl-5-(N-methyl-N-(3,3,3-trifluoropropyl)sulfamoyl)thiophen-2-yl)-1H-pyrazole-3-carboxamide], the pEC50 is 6.81 at CFTR ΔF508 mutant [1], 7.42 at CFTR ΔF508 mutant [2], 7.68 on CFTR ΔF508 mutant [3] and 6.73 on CFTR G551D mutant.

As for `CN(CC(C)(C)C)S(=O)(=O)c1cc(C(N)=O)c(NC(=O)c2cc[nH]n2)s1` [Compound 192, N-(3-carbamoyl-5-(N-methyl-N-neopentylsulfamoyl)thiophen-2-yl)-1H-pyrazole-3-carboxamide], the pEC50 at CFTR ΔF508 mutant [1] was 7.22; on CFTR ΔF508 mutant [2] it was 7.48; at CFTR ΔF508 mutant [3], 7.68; on CFTR G551D mutant it was 6.53.

Turning to `NC(=O)c1cc(S(=O)(=O)N2CC=C(C(F)(F)F)CC2)sc1NC(=O)c1ccccc1F` [Compound 158, 2-(2-fluorobenzamido)-5-(4-(trifluoromethyl)-5,6-dihydropyridin-1(2H)-ylsulfonyl)thiophene-3-carboxamide], the pEC50 on CFTR ΔF508 mutant [1] was 7.30; at CFTR ΔF508 mutant [2], 7.45; on CFTR ΔF508 mutant [3] it was 7.10; on CFTR G551D mutant, 5.73.

In the case of `NC(=O)c1cc(S(=O)(=O)c2ccc(F)cc2)sc1NC(=O)c1ccccc1O` [Compound 223, 5-(4-fluorophenylsulfonyl)-2-(2-hydroxybenzamido) thiophene-3-carboxamide], the negative logarithm of the EC50 (pEC50) at CFTR ΔF508 mutant [1] is 7.42; at CFTR ΔF508 mutant [2], 7.50; at CFTR ΔF508 mutant [3], 7.21; on CFTR G551D mutant, 6.49.
